Laboratory results: patent US20190093170A1, “USE OF TRANSLATIONAL PROFILING TO IDENTIFY TARGET MOLECULES FOR THERAPEUTIC TREATMENT” (THE REGENTS OF THE UNIVERSITY OF CALIFORNIA, priority 2013, published 2019)

How the values were obtained:
[1] = tested on: YB1, MTA1, vimentin, and CD44; assay: Western blot and qPCR of invasion genes in PC3 cells; format: cell-based, human; details: starting at 6 hr of treatment
Experimental: Western blot analysis was performed as previously described (Hsieh et al., Cancer Cell 17:249-261 (2010)) with antibodies specific to phospho-AKT^S473 (Cell Signaling), AKT (Cell Signaling), phospho-p70S6K^T389 (Cell Signaling), phospho-rpS6^S240/244 (Cell Signaling), rpS6 (Cell Signaling), phospho-4EBP1^T37/46 (Cell Signaling), 4EBP1 (Cell Signaling), 4EBP2 (Cell Signaling), YB1 (Cell Signaling), CD44 (Cell Signaling), LEF1 (Cell Signaling), PTEN (Cell Signaling), eEF2 (Cell Signaling), GAPDH (Cell Signaling), vimentin (BD Biosciences), eIF4E (BD Biosciences), Flag (Sigma), β-actin (Sigma), MTA1 (Santa Cruz Biotechnology), Twist (Santa Cruz Biotechnology), rpL28 (Santa Cruz Biotechnology), HA (Covance) and rictor (Bethyl Laboratory).
RNA was isolated using the manufacturer's protocol for RNA extraction with TRIzol Reagent (Invitrogen) using the Pure Link RNA mini kit (Invitrogen). RNA was DNase-treated with Pure Link Dnase (Invitrogen). DNase-treated RNA was transcribed to cDNA with SuperScript III First-Strand Synthesis System for RT-PCR (Invitrogen), and 1 μl of cDNA was used to run a SYBR green detection qPCR assay (SYBR Green Supermix and MyiQ2, Biorad). Primers were used at 200 nM.

[2] = tested on: PC3 human prostate cancer cells; assay: Ribosome profiling: translational efficiency (ribosome footprint vs RNA-seq read density); format: cell-based; details: for PP242 TrlEff: 3-hour treatment with PP242 (2.5 μM) in PC3 cells;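 on all read-outs here: Per-gene footprint-to-mRNA density ratio averaged per codon over the coding sequence, scaled so the median gene equals 1.0 after excluding regulated genes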
Experimental: Given the critical role for mTOR in prostate cancer, PC3 human prostate cancer cells, in which mTOR is constitutively hyperactivated, were used to delineate translationally controlled gene expression networks upon complete or partial mTOR inhibition. Ribosome profiling was optimized to assess quantitatively ribosome occupancy genome-wide in cancer cells.
Cells were subsequently treated with cycloheximide (100 μg ml^−1; Sigma) and detergent lysis was performed in the dish. The lysate was treated with DNase and clarified, and a sample was taken for RNA-seq analysis. Lysates were subjected to ribosome footprinting by nuclease treatment. Ribosome-protected fragments were purified, and deep sequencing libraries were generated from these fragments, as well as from poly(A) mRNA purified from non-nuclease-treated lysates. These libraries were analyzed by sequencing on an Illumina GAII.
Ribosome footprint and RNA-seq sequencing reads were aligned against a library of transcripts from the UCSC Known Genes database GRCh37/hg19. The first 25 nucleotides of each read were aligned using Bowtie and this initial alignment was then extended to encompass the full fragment-derived portion of the sequencing read while excluding the linker sequence. Read density profiles were then constructed for the canonical transcript of each gene, using only reads with 0 or 1 total mismatches between the read sequence and the reference sequence, comprised of the transcript fragment followed by the linker sequence. Footprint reads were assigned to an A site nucleotide at position +15 to +17 of the alignment, based on the total fragment length; mRNA reads were assigned to the first nucleotide of the alignment. The average read density per codon was then computed for the coding sequence of each transcript, excluding the first 15 and last 5 codons, which can display atypical ribosome accumulation.
Average read density was used as a measure of mRNA abundance (RNA-seq reads) and of protein synthesis (ribosome profiling reads). For most analyses, genes were filtered to require at least 256 reads in the relevant RNA-seq samples. Translational efficiency was computed as the ratio of ribosome footprint read density to RNA-seq read density, scaled to normalize the translational efficiency of the median gene to 1.0 after excluding regulated genes (log 2 fold-change+1.5 after normalizing for the all-gene median). Changes in protein synthesis, mRNA abundance and translational efficiency were similarly computed as the ratio of read densities between different samples, normalized to give the median gene a ratio of 1.0. This normalization corrects for differences in the absolute number of sequencing reads obtained for different libraries.

CC(C)n1nc(-c2cc3cc(O)ccc3[nH]2)c2c(N)ncnc21 [PP242]
expression of YB1, MTA1, vimentin, and CD44 at the protein but not transcript level [1]: selective decrease | PP242 TrlEff ([2]; gene ACD): −1.02 | TrlEff ([2]; gene ACTG1): −1.40 | TrlEff ([2]; gene AGRN): −1.29 | TrlEff ([2]; gene ALKBH7): −1.27 | TrlEff ([2]; gene AP2A1): −1.32 | TrlEff ([2]; gene ARD1A): −1.05 | TrlEff ([2]; gene ATP5G2): −1.01 | PP242 TrlEff ([2]; gene C17orf28): −0.20 | TrlEff ([2]; gene C21orf66): −1.03 | PP242 TrlEff ([2]; gene CCNA1): 0.66 | TrlEff ([2]; gene CCNI): −1.33 | TrlEff ([2]; gene CD44): −1.29 | TrlEff ([2]; gene CIRBP): −1.08 | TrlEff ([2]; gene CLPTM1): −1.13 | TrlEff ([2]; gene COL6A2): −1.29 | TrlEff ([2]; gene CRTAP): −2.50 | PP242 TrlEff ([2]; gene DDX51): −0.51 | PP242 TrlEff ([2]; gene DGCR2): 0.02 | TrlEff ([2]; gene ECSIT): −1.06 | PP242 TrlEff ([2]; gene EEF1A1): −3.53 | TrlEff ([2]; gene EEF1A2): −1.94 | TrlEff ([2]; gene EEF1D): −2.37 | TrlEff ([2]; gene EEF1G): −2.26 | TrlEff ([2]; gene EEF2): −3.60 | TrlEff ([2]; gene EIF3H): −1.54 | TrlEff ([2]; gene EIF3L): −1.47 | TrlEff ([2]; gene EIF4B): −2.27 | TrlEff ([2]; gene EVPL): −0.79 | TrlEff ([2]; gene FAM83H): −1.11 | TrlEff ([2]; gene FAM128B): −1.47 | TrlEff ([2]; gene FASN): −1.42 | TrlEff ([2]; gene GLTSCR2): −2.12 | TrlEff ([2]; gene GNB2L1): −2.35 | PP242 TrlEff ([2]; gene GTPBP3): −0.83 | TrlEff ([2]; gene HNRNPA1): −2.12 | TrlEff ([2]; gene HSPA8): −2.25 | TrlEff ([2]; gene IMPDH2): −1.33 | TrlEff ([2]; gene LAMA5): −0.94 | TrlEff ([2]; gene LMF2): −1.36 | PP242 TrlEff ([2]; gene MAPK6): −0.29 | PP242 TrlEff ([2]; gene MAPKAPK2): 0.92 | TrlEff ([2]; gene MTA1): −1.09 | TrlEff ([2]; gene NCLN): −0.76 | PP242 TrlEff ([2]; gene NFATC21P): 0.35 | PP242 TrlEff ([2]; gene NR2F1): −0.09 | TrlEff ([2]; gene PABPC1): −2.09 | TrlEff ([2]; gene PABPC4): −1.98 | TrlEff ([2]; gene PACS1): −1.09 | TrlEff ([2]; gene PFDN5): −1.38 | TrlEff ([2]; gene PGLS): −1.11 | TrlEff ([2]; gene PGM1): −1.35 | TrlEff ([2]; gene PNKP): −0.79 | PP242 TrlEff ([2]; gene PRKD3): 0.68 | TrlEff ([2]; gene PTGES2): −0.65 | TrlEff ([2]; gene RABGGTB): −1.46 | PP242 TrlEff ([2]; gene RBPJ): −0.03 | TrlEff ([2]; gene RPL3): −2.44 | TrlEff ([2]; gene RPL4): −1.50 | TrlEff ([2]; gene RPL7): −2.02 | TrlEff ([2]; gene RPL7A): −2.30 | TrlEff ([2]; gene RPL9): −1.59 | TrlEff ([2]; gene RPL10): −2.46 | TrlEff ([2]; gene RPL10A): −2.16 | TrlEff ([2]; gene RPL11): −2.31 | TrlEff ([2]; gene RPL12): −2.95 | TrlEff ([2]; gene RPL13): −1.56 | TrlEff ([2]; gene RPL13A): −3.10 | TrlEff ([2]; gene RPL15): −1.20 | TrlEff ([2]; gene RPL18A): −2.63 | TrlEff ([2]; gene RPL19): −1.35 | TrlEff ([2]; gene RPL21): −2.45 | TrlEff ([2]; gene RPL22): −1.64 | TrlEff ([2]; gene RPL24): −1.41 | TrlEff ([2]; gene RPL26): −2.00 | TrlEff ([2]; gene RPL27): −1.23 | TrlEff ([2]; gene RPL27A): −2.53 | TrlEff ([2]; gene RPL28): −2.54 | PP242 TrlEff ([2]; gene RPL28): −3.48 | TrlEff ([2]; gene RPL31): −2.10 | TrlEff ([2]; gene RPL32): −2.33 | TrlEff ([2]; gene RPL34): −2.63 | TrlEff ([2]; gene RPL36A): −1.98 | TrlEff ([2]; gene RPL37A): −2.38 | TrlEff ([2]; gene RPL39): −2.41 | PP242 TrlEff ([2]; gene RPL39): −2.53 | TrlEff ([2]; gene RPL41): −1.28 | TrlEff ([2]; gene RPLP0): −1.61 | TrlEff ([2]; gene RPLP1): −2.06 | TrlEff ([2]; gene RPLP2): −2.10 | TrlEff ([2]; gene RPS2): −2.25 | TrlEff ([2]; gene RPS3): −2.16 | TrlEff ([2]; gene RPS3A): −2.17 | TrlEff ([2]; gene RPS4X): −2.06 | TrlEff ([2]; gene RPS5): −2.25 | TrlEff ([2]; gene RPS7): −1151 | TrlEff ([2]; gene RPS9): −2.27 | TrlEff ([2]; gene RPS12): −3.00 | TrlEff ([2]; gene RPS13): −1.54 | TrlEff ([2]; gene RPS14): −1.50 | TrlEff ([2]; gene RPS15): −1.19 | TrlEff ([2]; gene RPS15A): −2.31 | TrlEff ([2]; gene RPS19): −2.34 | TrlEff ([2]; gene RPS20): −2.46 | PP242 TrlEff ([2]; gene RPS20): −2.78 | TrlEff ([2]; gene RPS21): −2.09 | TrlEff ([2]; gene RPS25): −2.13 | TrlEff ([2]; gene RPS27): −2.71 | PP242 TrlEff ([2]; gene RPS27): −3.35 | TrlEff ([2]; gene RPS27A): −1.61 | TrlEff ([2]; gene RPS28): −2.67 | PP242 TrlEff ([2]; gene SDCCAG10): 0.23 | TrlEff ([2]; gene SLC19A1): −1.07 | TrlEff ([2]; gene TKT): −1.58 | TrlEff ([2]; gene TPT1): −1.94 | TrlEff ([2]; gene TSC2): −1.09 | TrlEff ([2]; gene UBA52): −1.62 | PP242 TrlEff ([2]; gene UBTD2): 0.27 | PP242 TrlEff ([2]; gene UCHL5): 0.40 | PP242 TrlEff ([2]; gene VHL): 0.52 | TrlEff ([2]; gene VIM): −2.38 | TrlEff ([2]; gene YB1): −2.30
